Source: PMC10101490 (The Journal of Biological Chemistry, 2023)

Biological target: α7 nAChR (Homo sapiens, UniProt P36544)
Assay: cell-based
Set-up: expressed in transfected cells; host or cells: Xenopus laevis oocytes injected with cRNA transcribed from α7-pSHE; species or system Human (expressed in Xenopus laevis oocytes)
Details: Inhibition phase potency

α7 nAChR, sequence (P36544 23-502 limits assumed): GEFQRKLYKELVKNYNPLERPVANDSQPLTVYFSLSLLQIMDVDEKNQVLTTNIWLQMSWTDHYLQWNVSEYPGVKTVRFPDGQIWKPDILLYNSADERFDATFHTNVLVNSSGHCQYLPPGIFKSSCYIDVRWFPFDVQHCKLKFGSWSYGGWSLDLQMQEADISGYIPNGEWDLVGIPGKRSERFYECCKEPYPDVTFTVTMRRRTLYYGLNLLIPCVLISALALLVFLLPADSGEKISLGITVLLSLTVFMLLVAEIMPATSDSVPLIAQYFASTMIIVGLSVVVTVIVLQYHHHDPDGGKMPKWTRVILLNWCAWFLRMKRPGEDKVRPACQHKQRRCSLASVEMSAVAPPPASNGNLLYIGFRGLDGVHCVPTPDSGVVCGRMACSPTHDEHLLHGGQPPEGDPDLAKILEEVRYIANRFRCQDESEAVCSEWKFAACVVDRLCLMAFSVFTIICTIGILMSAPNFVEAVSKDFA

CC[C@H](C)[C@H](NC(=O)CNC(=O)[C@H](C)NC(=O)CNC(=O)[C@@H](NC(=O)[C@@H]1CCCN1C(=O)[C@@H](NC(=O)[C@H](CC(=O)O)NC(=O)[C@H](CS)NC(=O)[C@H](CCC(=O)O)NC(=O)[C@@H](N)Cc1ccc(O)cc1)[C@@H](C)CC)[C@@H](C)CC)C(=O)N[C@@H](CS)C(=O)N[C@@H](C)C(=O)N[C@@H](CO)C(=O)N[C@@H](Cc1ccc(O)cc1)C(=O)N[C@@H](CCC(N)=O)C(=O)N[C@H](C(=O)N[C@@H](CCC(N)=O)C(=O)N[C@H](C(=O)N[C@@H](CC(N)=O)C(=O)N[C@@H](CO)C(=O)N[C@@H](CCCNC(=N)N)C(=O)N[C@@H](CCCNC(=N)N)C(=O)N[C@@H](CCCNC(=N)N)C(=O)N[C@@H](C)C(=O)N[C@@H](CCCNC(=N)N)C(=O)N[C@@H](CO)C(=O)N[C@H](C(=O)N[C@@H](C)C(=O)N[C@@H](CO)C(=O)O)C(C)C)[C@@H](C)O)[C@@H](C)O [delta SCoV2P]
IC50: 100 µM
